Results: publication PMC11574021, “CEP192 localises mitotic Aurora-A activity by priming its interaction with TPX2” (The EMBO Journal, 2024)

Assays:
[1] = tested on: Aurora-A:TACC3 complexes in RPE1 p53-/- cells; assay: Proximity ligation assay Aurora-A:TACC3, RPE1 p53-/-; assay type: cell-based, Homo sapiens; details: siRNA 48 h
Method: siRNA depletion was carried out by reverse transfection using oligofectamine (Thermo Scientific, 12252011) and lipofectamine RNAiMax (Thermo Scientific, 13778075), according to the manufacturer’s instructions, for U251 and RPE1 cells, respectively. For immunofluorescence, 1 × 10^5 cells were seeded in six-well plates and simultaneously transfected with 60 pmol siRNA duplex and 3 µl transfection reagent diluted in 200 µl Opti-MEM serum-free medium. Growth medium was added to a final volume of 2 ml. For western blotting, 1 × 10^6 cells were seeded in 10 cm dishes and transfected with 300 pmol siRNA duplex and 15 µl transfection reagent diluted in 1000 µl Opti-MEM. Growth medium was added to a final volume of 10 ml. Cells were incubated with siRNA for 48 h prior to fixation or harvesting. As a negative control (siControl) Silencer select negative control No.1 siRNA was transfected as above. For TACC3 depletion, where two siRNA duplexes were used, 40 pmol of each was transfected per well.
Cells were seeded and fixed as above, then a proximity ligation assay (PLA) was carried out according to the manufacturer’s instructions with the supplied buffers (Navinci, NaveniFlex Cell MR Red, NC.MR.100 Red). All incubations are for 1 h at 37 °C, unless otherwise stated. […]

[2] = tested on: NuMA in RPE1 p53-/- cells; assay: Immunofluorescence, NuMA spindle pole signal intensity, RPE1 p53-/-; assay type: cell-based, Homo sapiens; details: Aurora-A inhibitor 30 min (500 nM), compared with RΔ11
Method: As noted in the figures, the following drugs were incubated with cells for 30 min at 37 °C: Aurora-B-i ZM447439 2 µM [10 mM], PLK1-I BI2536 1 µM [10 mM] and Aurora-A-i MLN8237 [5 mM] was used at 250 and 500 nM in U251 and RPE1 cells, respectively. Drugs were resuspended in DMSO to the stock concentrations indicated in square brackets. BI2536 (HY-50698), MLN8237 (HY-10971) and ZM447439 (HY-10128) were all purchased from MedChemExpress. For western blotting, a 20-min pre-treatment with proteasome inhibitor (20 µM MG-132, MerckMillipore, 47490 [20 mM]) was required prior to the addition of DMSO control or kinase inhibitors. This prevented mitotic exit as a consequence of checkpoint override following Aurora-A and Aurora-B inhibitor addition.
For siRNA depletion, 1 × 10^5 cells were seeded in six-well plates and transfected as described above for 48 h prior to fixation. For all other experiments, 2.5 × 10^5 cells were seeded in six-well plates and grown for 24 h before fixation. All cells were grown on 12 mm diameter glass coverslips (VWR, 631–1577). […]
For CEP192, LATS2-pS83, PCNT, PLK1 and γ-tubulin intensity, a 20-pixel diameter circle was centred over each centrosome and the intensity measured. […]

Compound	PLA foci formation between TACC3 and Aurora-A antibodies [1]	NuMA levels at spindle poles [2]
5′-CGGUAGUGAUAAAAGCUCAtt-3′ [siTPX2]	fully prevented both spindle recruitment of TACC3 and PLA foci formation	
COc1cc(Nc2ncc3c(n2)-c2ccc(Cl)cc2C(c2c(F)cccc2OC)=NC3)ccc1C(=O)O [Alisertib]		equally high in R∆11 and Aurora-A inhibitor-treated cells
